Experimental data published in patent US20230136569A1, “USE OF NMN TO REDUCE IMMUNODEPRESSION AND IMMUNOSENESCENCE” (NUVAMID SA, priority 2020, published 2023).

How the values were obtained:
Type in all cases: in vivo
[1] = Weight gain and water consumption of mice given the compounds in drinking water; details: old mice (15 months), 500 mg/kg p.o. in drinking water; compared with non-treated mice of 15 months (FIG. 1A)
Description: (§1) The administering of β-NMN at 500 mg/kg, of α-NMN at 500 mg/kg and of the vehicle (water) was obtained via oral route (p.o) in the drinking water to young and old mice. The solutions were prepared by dissolving the powder of β-NMN or α-NMN in the vehicle (water). The solution was used at ambient temperature for no more than 2 days and was freshly prepared for each new administration. The mice were weighed each week to adapt the dose of the compound to be administered. Throughout the entire phase, a standard food diet and tap water were provided ad libitum. The study comprised 4 groups each having 6 mice: • Group 1: young mice (aged 10 weeks)+drinking water (vehicle) • Groupe 2: old mice (aged 15 months)+drinking water (vehicle) • Group 3: old mice (aged 15 months)+compound I-B (alpha-NMN) in the drinking water • Group 4: old mice (aged 15 months)+compound I-A (beta-NMN) in the drinking water The water consumption of the mice was assessed per cage every other day. The mice were weighed every week. The mice in Group 3 were sacrificed after 4 weeks for organ collection and characterisation of T cell function. The mice in Group 4 were sacrificed after 6 weeks for organ collection and characterisation of T cell function. On the day of sacrifice, the mice were anaesthetised with Vetoflurane (isoflurane) and blood samples were taken from the retroorbital sinus. […]

[2] = system: T cells present in the spleen; test: Flow cytometry of CD4+ and CD8+ T cells in the spleen of old mice; details: 500 mg/kg p.o.; for number of CD4+ effector T cells: α-NMN 4 weeks, β-NMN 6 weeks, compared with Group 3 (so in the source)
Description: The administering of β-NMN at 500 mg/kg, of α-NMN at 500 mg/kg and of the vehicle (water) was obtained via oral route (p.o) in the drinking water to young and old mice. The solutions were prepared by dissolving the powder of β-NMN or α-NMN in the vehicle (water). The study comprised 4 groups each having 6 mice: • Group 1: young mice (aged 10 weeks)+drinking water (vehicle) • Groupe 2: old mice (aged 15 months)+drinking water (vehicle) • Group 3: old mice (aged 15 months)+compound I-B (alpha-NMN) in the drinking water • Group 4: old mice (aged 15 months)+compound I-A (beta-NMN) in the drinking water The water consumption of the mice was assessed per cage every other day. The mice were weighed every week. The mice in Group 3 were sacrificed after 4 weeks for organ collection and characterisation of T cell function. The mice in Group 4 were sacrificed after 6 weeks for organ collection and characterisation of T cell function. On the day of sacrifice, the mice were anaesthetised with Vetoflurane (isoflurane) and blood samples were taken from the retroorbital sinus. The blood was incubated for 30 minutes at ambient temperature and then centrifuged at 1300 g for 10 minutes. After sacrificing of the mice, the spleen, thymus, and bone marrow of each animal were removed. The thymus was weighed and measured to evaluate involution thereof. For illustration purposes, photos of the thymus were taken on 5 animals per group. The thymus was divided into two parts: one part was treated with formol for histological examination. The second part was treated for characterisation of the immune cells. For characterisation of the cells, the thymus and spleen were crushed through a sieve of […] over a 50 mL tube with a syringe plunger. The bone marrow was rinsed with RPMI culture medium using a needle and syringe. The cell suspension was then centrifuged at 400 g for 5 minutes at 4° C. Lysis of the red blood cells was also performed before the cell count and use thereof for cytometry. The isolated cells of the spleen, thymus and bone marrow were marked with antibodies in accordance with the following tables to identify the proportion of effector and memory naive T and B cells. The following T cells of the spleen were also examined for characterisation as a function of the combination of proteins on the surface thereof: [table] Measured parameters: The results of flow cytometry are expressed in number or as a proportion of cells per organ. The weight of the thymus is expressed in grams.

[3] = system: old mice (aged 15 months); test: Study of the effects on immunosenescence in old mice (overall conclusion); details: old mice (15 months), 500 mg/kg p.o. in drinking water; concluding statement
Description: as §1, with “[…] The thymus was weighed” for “On the day of sacrifice, the mice were anaesthetised with Vetoflurane (isoflurane)”, “measured to evaluate involution thereof.” for “blood samples were taken from the retroorbital sinus.”

| SMILES | weight gain of the treated mice [1] | number of CD4+ memory T cells in the spleen ([2]; 6 weeks, compared with the other groups (FIG. 7B)) | total number of CD4+ T cells in the spleen ([2]; 6 weeks, compared with the other groups of mice (FIG. 7A)) | number of CD4+ effector T cells [2] | signs of immunosenescence [3] | number of naive CD8+ T cells in the spleen ([2]; 4 weeks (FIG. 8A)) | levels of effector CD8+ T cells in the spleen ([2]; 4 weeks (FIG. 8B)) | levels of memory CD8+ T cells in the spleen ([2]; 4 weeks (FIG. 8C as printed)) | levels of effector memory CD8+ T cells in the spleen ([2]; 4 weeks (FIG. 8D as printed)) |
| --- | --- | --- | --- | --- | --- | --- | --- | --- | --- |
| NC(=O)c1ccc[n+]([C@@H]2O[C@H](COP(=O)([O-])O)[C@@H](O)[C@H]2O)c1 (stereo in doubt) [I-A, nicotinamide mononucleotide] | did not significantly increase the weight | increase in the memory T cells that is significant | significantly increased | increase in the number of CD4+ effector T cells | significant decrease in the signs of immunosenescence | – | – | – | – |
| NC(=O)c1ccc[n+]([C@H]2O[C@H](COP(=O)([O-])O)[C@@H](O)[C@H]2O)c1 (stereo in doubt) [I-B, alpha nicotinamide mononucleotide] | did not significantly increase the weight | – | – | increase in the number of CD4+ effector T cells | significant decrease in the signs of immunosenescence | does not modify the number of naive CD8+ T cells | restoring of the levels of effector CD8+ T cells | restoring of the levels | restoring of the levels |
